Source: PMC3483286, “Functional characterization and evolution of PTH/PTHrP receptors: insights from the chicken” (BMC Evolutionary Biology, 2012)
Entries after “also recorded” stand apart in the source; their conditions may differ. Where a SMILES comes first, the peptide text is derived from it.

Key:
chicken PTH1R [1] = biological target: T1, chicken PTH1R (Gallus gallus, UniProt C7S302); assay: intracellular Ca^2+ accumulation in HEK293 cells transfected with chicken PTH1R (Fluo-4 NW); format: cell-based; settings: HEK293, Fluo-4 NW; peptide 1 μM and 100 nM screen, decreasing concentrations
Protocol: (§1) HEK293 cells were maintained in complete Dulbecco’s modified Eagle’s medium (DMEM, Sigma, Spain) with 4.5 g/L glucose, 110 mg/L sodium pyruvate and L-glutamine supplemented with 10% sterile foetal bovine serum and 0.1% penicillin: streptomycin antibiotic mixture (10.000 U:10 mg/ml, Sigma) in a humid 5% CO2 incubator (Sanyo) at 37°C. On the day prior to transfection, 2–3 x10^5 cells were seeded on 6 well-plates (Starsted, Portugal). Linearized constructs (1 μg) and Fugene 6 (Roche, Germany) cell transfection reagent were used to transfect cells according to the manufactures protocol. […] Cell recovery was monitored daily by constant changes of antibiotic selective medium and the success of gene integration and expression was confirmed by RT-PCR with receptor specific primers.
(§2) Intracellular Ca^2+ (iCa^2+) release was measured using the Ca^2+ sensitive fluorescent dye Fluo-4 NW (Molecular Probes, Invitrogen) according to manufacturer’s instructions. […] Incubations were carried out with 100 μl of the different peptides concentrations (from 1 μM to 100 nM) and cell fluorescence was measured every 10 sec over 2 minutes after addition of reagent using a Synergy4 (Biotek, USA) plate reader. Carbachol (100 nM; Sigma, Spain) was used as a positive control for the assay and the background signal was determined by measuring fluorescence in wells containing non-transfected cells. […]

chicken PTH3R [2] = biological target: T2, chicken PTH3R (Gallus gallus, UniProt G8YY06); assay: cAMP accumulation in HEK293 cells stably transfected with chicken PTH3R (radioimmunoassay); format: cell-based; settings: for stimulation of PTH3R cAMP accumulation, comparison in words: chicken 1–34 peptides, 0.1 nM to 100 nM; for Emax (maximal cAMP production, PTH3R): mean ± SEM, 3 experiments in triplicate, above basal levels, * (PTH-L) p < 0.05 compared to other peptides
T2 sequence (G8YY06 1-530): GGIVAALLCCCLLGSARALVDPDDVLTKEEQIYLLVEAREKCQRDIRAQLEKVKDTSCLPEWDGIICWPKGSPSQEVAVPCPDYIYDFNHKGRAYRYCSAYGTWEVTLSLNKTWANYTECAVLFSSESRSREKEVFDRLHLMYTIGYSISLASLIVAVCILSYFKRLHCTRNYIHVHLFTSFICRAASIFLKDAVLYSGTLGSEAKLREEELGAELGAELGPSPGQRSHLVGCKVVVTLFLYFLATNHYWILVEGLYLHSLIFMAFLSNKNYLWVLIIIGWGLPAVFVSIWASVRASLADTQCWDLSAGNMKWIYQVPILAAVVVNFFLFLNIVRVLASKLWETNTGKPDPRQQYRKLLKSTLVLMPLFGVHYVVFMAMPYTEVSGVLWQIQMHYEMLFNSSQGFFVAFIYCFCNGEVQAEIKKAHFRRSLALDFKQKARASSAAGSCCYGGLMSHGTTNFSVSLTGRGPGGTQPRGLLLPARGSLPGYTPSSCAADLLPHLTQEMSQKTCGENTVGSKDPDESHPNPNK
Protocol: (§3) HEK293 cells were maintained in complete Dulbecco’s modified Eagle’s medium (DMEM, Sigma, Spain) with 4.5 g/L glucose, 110 mg/L sodium pyruvate and L-glutamine supplemented with 10% sterile foetal bovine serum and 0.1% penicillin: streptomycin antibiotic mixture (10.000 U:10 mg/ml, Sigma) in a humid 5% CO2 incubator (Sanyo) at 37°C. On the day prior to transfection, 2–3 x10^5 cells were seeded on 6 well-plates (Starsted, Portugal). Linearized constructs (1 μg) and Fugene 6 (Roche, Germany) cell transfection reagent were used to transfect cells according to the manufactures protocol. The transfection complex was incubated for 40 min at room temperature before adding to the cells which were left to grown for 72 hours with daily changes of complete medium. Selection of the stably transfected clones was performed with complete medium supplemented with 800 μg/ml of Geneticin (G418 sulphate, GibcoBRL) and 250 μg/ml sterile filtered 1:100 amphotericin B solution (Sigma, Spain). Cell recovery was monitored daily by constant changes of antibiotic selective medium and the success of gene integration and expression was confirmed by RT-PCR with receptor specific primers.
(§4) The capacity of chicken (1–34) PTH-family peptides to activate the stably transfected PTH1R and PTH3R cell lines was analysed by measuring intracellular cAMP production. Cell line bearing chicken receptors PTH1R and PTH3R were assayed in triplicate in the same assay in 96 well plates (Starstedt). Three independent experiments were performed. Cells were incubated at 37°C in a CO2 incubator and two days prior to the experiments, 2–3 x 10^5 cells were plated and peptide assays were carried out by adding to the recombinant cells decreasing concentrations of test peptide: 100 nM to 0.1 nM of chicken PTH(1–34), PTHrP(1–34) and PTH-L(1–34) or 100 nM of human PTH(1–34) and human TIP39 (Sigma, Spain). Prior to peptide addition, cells were incubated for 40 min with 1 mM 3-isobutyl-1-methylxantine (IBMX, Sigma), which was replaced with fresh medium containing the test peptide in the presence of 1 mM IBMX for a further 40 min. Forskolin (10 μM, Sigma) was used as positive control. Negative control assays were carried out using non-transfected cells in the presence or absence of 100 nM of each peptide. At the end of the assays, cells were washed, ressuspended in 100 μl of 1 x PBS/0.5 M EDTA and immediately frozen at −80°C to promote cell lysis for later quantification of intracellular cAMP production.
(§5) For quantification of intracellular cAMP, cells were lysed using 3 consecutive thaw (42°C)/freeze (−80°C) cycles and the supernatant and cell debris were sonicated for 20 sec on ice. Cells were boiled at 100°C for 10 min to denature proteins and the supernatant was collected after centrifugation for 10 min at 4°C and 19000 g. cAMP was quantified in duplicate by radioimmunoassay using the TRK432 kit (GE Healthcare, UK) following the manufacturer's instructions.
(§6) The results are presented as the mean ± SEM of three independent experiments carried out in triplicate for cAMP experiments and two independent experiments carried out in quadruplicate for Ca^2+ experiments. Data was plotted as the output of cAMP or Ca^2+ at different peptide concentrations for each PTHR using SigmaPlot 9 (Systat, Inc., San Jose, CA). EC50 and confidence limits were calculated using a sigmoidal curve fitting feature within the Single Ligand Binding routine of the Pharmacology module of Sigmaplot. […] To improve curve fitting the maximum empirical stimulation achieved for each receptor was assumed to be at 100 nM for all assays and the curve fitted accordingly.

chicken PTH3R [3] = biological target: T2, chicken PTH3R; assay: intracellular Ca^2+ accumulation in HEK293 cells transfected with chicken PTH3R (Fluo-4 NW); format: cell-based; settings: HEK293, Fluo-4 NW; 1 μM and 100 nM of each peptide
Protocol: as §1, §2

chicken PTH1R [4] = biological target: T1, chicken PTH1R; assay: cAMP accumulation in HEK293 cells stably transfected with chicken PTH1R (radioimmunoassay); format: cell-based; settings: for Emax (maximal cAMP production, PTH1R): mean ± SEM, 3 experiments in triplicate, above basal levels, * (PTHrP) p < 0.05 compared to other peptides; for accumulation of cAMP with PTH1R, human peptide, in words: human peptides at 10 nM and 100 nM, single experiment in triplicate
Protocol: as §3, §4, §5, §6

Zebrafish PTH1R = settings: N-terminal peptides; ref [8],[10]; cited from earlier work
Description: Chicken PTHRs are activated by PTH-family peptides in a dose-dependent manner. […] Mammalian PTH1R is activated by both PTH and PTHrP which have similar potency and stimulate both cAMP and iCa^2+ production.

T1 sequence (C7S302 1-538): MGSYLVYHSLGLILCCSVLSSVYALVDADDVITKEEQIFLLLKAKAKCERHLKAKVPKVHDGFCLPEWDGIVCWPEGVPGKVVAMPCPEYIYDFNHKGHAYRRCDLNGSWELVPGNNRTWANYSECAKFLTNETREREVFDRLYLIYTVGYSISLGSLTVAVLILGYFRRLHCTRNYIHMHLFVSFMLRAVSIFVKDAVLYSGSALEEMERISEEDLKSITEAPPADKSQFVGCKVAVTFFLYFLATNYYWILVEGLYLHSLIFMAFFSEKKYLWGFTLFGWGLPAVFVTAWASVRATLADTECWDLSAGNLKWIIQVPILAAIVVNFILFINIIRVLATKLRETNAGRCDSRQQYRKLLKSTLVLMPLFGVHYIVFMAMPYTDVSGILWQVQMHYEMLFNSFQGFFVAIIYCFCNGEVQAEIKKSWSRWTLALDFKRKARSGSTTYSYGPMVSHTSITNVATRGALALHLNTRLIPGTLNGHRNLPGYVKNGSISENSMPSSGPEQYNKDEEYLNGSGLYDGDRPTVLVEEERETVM

| Emax (maximal cAMP production, PTH3R) (chicken PTH3R [2]) [pmol/well] | release of intracellular Ca^2+ on PTH3R activation, in words (chicken PTH3R [3]) | Emax (maximal cAMP production, PTH1R) (chicken PTH1R [4]) | cAMP accumulation, human peptide on chicken PTH1R (chicken PTH1R [4]; 10^-7 M, mean ± SEM of a single experiment carried out in triplicate (Additional file 4)) [pmol/well] | Compound | intracellular Ca^2+ accumulation with PTH1R, in words (chicken PTH1R [1]) | stimulation of PTH3R cAMP accumulation, comparison in words (chicken PTH3R [2]) | stimulation of PTH3R cAMP accumulation, comparison in words (chicken PTH3R [2]; listed as PTHrP(1–34)) | stimulation of PTH1R cAMP accumulation, comparison in words (chicken PTH1R [4]; chicken 1–34 peptides, 0.1 nM to 100 nM) | activation of zebrafish PTH1R, in words (Zebrafish PTH1R) | accumulation of cAMP with PTH1R, human peptide, in words (chicken PTH1R [4]) | cAMP production with PTH3R, human peptide, in words (chicken PTH3R [2]; human peptides at 10 nM and 100 nM, single experiment in triplicate) |
| --- | --- | --- | --- | --- | --- | --- | --- | --- | --- | --- | --- |
| 119.9 ± 11.76 | not PTH3R | 17.21 ± 1.84 * pmol/well |  | CC[C@H](C)[C@H](NC(=O)[C@H](CC(C)C)NC(=O)[C@H](CC(N)=O)NC(=O)[C@H](CCC(N)=O)NC(=O)[C@H](CC(C)C)NC(=O)[C@H](Cc1ccccc1)NC(=O)[C@@H](NC(=O)[C@H](CCCNC(=N)N)NC(=O)[C@H](CCCNC(=N)N)NC(=O)[C@H](CCCNC(=N)N)NC(=O)[C@H](CC(C)C)NC(=O)[C@H](CC(=O)O)NC(=O)[C@H](CCC(N)=O)NC(=O)[C@@H](NC(=O)[C@H](CO)NC(=O)[C@H](CCCCN)NC(=O)CNC(=O)[C@H](CCCCN)NC(=O)[C@H](CC(=O)O)NC(=O)[C@H](Cc1c[nH]cn1)NC(=O)[C@H](CC(C)C)NC(=O)[C@H](CC(C)C)NC(=O)[C@H](CCC(N)=O)NC(=O)[C@H](Cc1c[nH]cn1)NC(=O)[C@H](CCC(=O)O)NC(=O)[C@H](CO)NC(=O)[C@@H](NC(=O)[C@H](C)N)C(C)C)[C@@H](C)CC)[C@@H](C)CC)C(=O)N[C@@H](CCC(=O)O)C(=O)NCC(=O)N[C@H](C(=O)N[C@@H](CC(N)=O)C(=O)N[C@H](C(=O)N[C@@H](C)C(=O)O)[C@@H](C)O)C(C)C [PTHrP] (H-AVSEHQLLHDKGKSIQDLRRRIFLQNLIEGVNTA-OH; N-terminus and C-terminus assumed) | stimulated intracellular Ca^2+ accumulation on activation of PTH1R; also recorded: efficiently stimulated iCa^2+ accumulation with PTH1R | Stimulation of PTH3R was highest for PTHrP and PTH | had overlapping potency with PTH(1–34) for the latter receptor | produced the highest stimulation of PTH1R (p < 0.05) |  |  |  |
|  |  |  | 21.4 ± 10 | Human PTH: human PTH(1–34) [reference compound] |  |  |  |  | activated similarly | stimulated cAMP production with an apparently similar potency to chicken PTHrP |  |
| 144.7 ± 20.02 |  | 6.03 ± 0.78 pmol/well |  | CSCC[C@H](NC(=O)[C@H](CC(C)C)NC(=O)[C@H](CCC(N)=O)NC(=O)[C@H](CCSC)NC(=O)[C@H](CCC(=O)O)NC(=O)[C@H](CO)NC(=O)[C@@H](NC(=O)[C@@H](N)CO)C(C)C)C(=O)N[C@@H](Cc1c[nH]cn1)C(=O)N[C@@H](CC(N)=O)C(=O)N[C@@H](CC(C)C)C(=O)NCC(=O)N[C@@H](CCC(=O)O)C(=O)N[C@@H](Cc1c[nH]cn1)C(=O)N[C@@H](CCCNC(=N)N)C(=O)N[C@@H](Cc1c[nH]cn1)C(=O)N[C@H](C(=O)N[C@H](C(=O)N[C@@H](CCC(=O)O)C(=O)N[C@@H](CCCNC(=N)N)C(=O)N[C@@H](CCC(N)=O)C(=O)N[C@@H](CC(=O)O)C(=O)N[C@@H](Cc1c[nH]c2ccccc12)C(=O)N[C@@H](CC(C)C)C(=O)N[C@@H](CCC(N)=O)C(=O)N[C@@H](CCSC)C(=O)N[C@@H](CCCCN)C(=O)N[C@@H](CC(C)C)C(=O)N[C@@H](CCC(N)=O)C(=O)N[C@@H](CC(=O)O)C(=O)N[C@H](C(=O)N[C@@H](Cc1c[nH]cn1)C(=O)N[C@@H](CO)C(=O)N[C@@H](C)C(=O)O)C(C)C)C(C)C)[C@@H](C)O [PTH] (H-SVSEMQLMHNLGEHRHTVERQDWLQMKLQDVHSA-OH; N-terminus and C-terminus assumed) | had no effect | Stimulation of PTH3R was highest for PTHrP and PTH |  |  |  |  |  |
|  |  |  |  | Human TIP39: human TIP39 (Sigma, Spain), tuberoinfundibular peptide 39 [reference compound] |  |  |  |  |  | failed to induce accumulation of cAMP with PTH1R | only negligible cAMP production was obtained for PTH3R |
